Data on 45 compounds can be found in the supplement of paper PMC10702517.

Data set [1] can be described thus: chemical recovery from spiked human plasma; higher = better extraction. Particulars: pooled human plasma.
The nature of data set [2]: chemical recovery by SPE of plasma after PDMS sampling; higher = better extraction. Particulars: pooled human plasma, extraction method: HLB SPE of plasma after PES.
Setting [3] is: extraction method: PES+SPE (3 d PDMS equilibration then HLB SPE).
Setting [4] is: extraction method: SPE only (HLB 96-well).
[5] abbreviates: extraction method: SPE only (HLB 96-well), PES comparison experiment.
[6] abbreviates: extraction method: solvent precipitation (ACN + hexane).

± gives the standard deviation.
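For chemical recovery by SPE of plasma after PDMS sampling in this document: over 400 spiked chemicals quantified by LC-HRMS or GC-HRMS via internal standard calibration, recovery relative to spike mix added to unspiked plasma extract to correct matrix effects.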

Consider `NC(=O)N1c2ccccc2C(O)C(O)c2ccccc21` (configuration not stated) [10,11-Dihydro-10,11-dihydroxycarbamazepine], for which the chemical recovery in data set [1] (setting [3]) amounted to 45.5 ± 5.2%; in data set [1] (setting [4]) it was 44.9 ± 4.7%; in data set [1] (setting [5]), 48.4 ± 4.8%; in data set [1] (setting [6]), 71 ± 2.8%. The “chemical recovery by SPE of plasma” value in data set [2] (equilibration time (d): 3) was found to be 69.9 ± 7.5%.

In the case of `Brc1ccc(Oc2ccc(Br)cc2Br)c(Br)c1` [BDE47], the “chemical recovery by SPE of plasma” value was determined as 1.38 ± 1% in data set [2] (equilibration time (d): 1), 1.56 ± 0.066% in data set [2] (equilibration time (d): 3) and 1.34 ± 0.21% in data set [2] (equilibration time (d): 6).

Take `c1cc2ccc3ccc4ccc5cccc6c(c1)c2c3c4c56` [Benzo(ghi)perylene]: the figures for the “chemical recovery by SPE of plasma” value in data set [2] (equilibration time (d): 1), in data set [2] (equilibration time (d): 3) and in data set [2] (equilibration time (d): 6) were 2.59 ± 4.5%, 1.28 ± 1.1% and 1.37 ± 0.46%, respectively.

Turning to `c1ccc2c(c1)-c1ccc3ccc4cccc5cc-2c1c3c45` [Indeno(1,2,3-cd)pyrene], the “chemical recovery by SPE of plasma” value came to 1.57 ± 0.15% in data set [2] (equilibration time (d): 1), 1.3 ± 0.43% in data set [2] (equilibration time (d): 3) and 1.16 ± 0.33% in data set [2] (equilibration time (d): 6).

As for `CCCC[N+](CCCC)(CCCC)CCCC` [Tetrabutylammonium], the chemical recovery in data set [1] (setting [4]) was 43 ± 3.8%.

On to `CCCCCCCCCCCCCCOS(=O)(=O)O` [Tetradecylsulfate], for which the figures for the chemical recovery in data set [1] (setting [4]) and in data set [1] (setting [6]) were 28.4 ± 6.5% and 35.5 ± 5.1%, respectively.

In the case of `CCCCCCCCCCCCCC[N+](C)(C)C` [Tetradecyltrimethylammonium], in data set [1] (setting [4]), the chemical recovery came out at 94.4 ± 29%.

In the case of `CC[N+](CC)(CC)CC` [Tetraethylammonium], the chemical recovery in data set [1] (setting [4]) came to 1.23 ± 0.72%.

`COCCOCCOCCOCCOC` [Tetraglyme]: the chemical recovery in data set [1] (setting [3]) was determined as 31.9 ± 3.7%; in data set [1] (setting [4]), 28.4 ± 3.6%; in data set [1] (setting [5]), 39.7 ± 9%; in data set [1] (setting [6]), 76.1 ± 3.7%.

Turning to `Cn1cnc2c1c(=O)[nH]c(=O)n2C` [Theobromine], in data set [1] (setting [4]), the chemical recovery worked out at 77.3 ± 28%.

As for `Cn1c(=O)c2[nH]cnc2n(C)c1=O` [Theophyllin], the results for the chemical recovery in data set [1] (setting [5]) and in data set [1] (setting [6]) were 95.7 ± 22% and 101 ± 6.1%, respectively.

With `c1ccc2[nH]c(-c3cscn3)nc2c1` [Thiabendazole], the chemical recovery was found to be 40.6 ± 4.9% in data set [1] (setting [3]), 41.3 ± 3% in data set [1] (setting [4]), 49.3 ± 3.5% in data set [1] (setting [5]) and 80.4 ± 4.5% in data set [1] (setting [6]).

As for `CN1COCN(Cc2cnc(Cl)s2)/C1=N\[N+](=O)[O-]` [Thiamethoxam], the chemical recovery was found to be 55.7 ± 4.8% in data set [1] (setting [3]), 50 ± 3.5% in data set [1] (setting [4]) and 73 ± 2.7% in data set [1] (setting [6]).

In the case of `COP(=S)(OC)Oc1c(Cl)cc(C)cc1Cl` [Tolclofos-methyl], the figures for the chemical recovery in data set [1] (setting [4]) and in data set [1] (setting [6]) were 33.8 ± 9.1% and 62 ± 6.2%, respectively.

For the compound `Cc1c(Cl)cccc1Nc1ccccc1C(=O)O` [Tolfenamic-acid], the chemical recovery worked out at 56.7 ± 5.2% in data set [1] (setting [3]), 36.5 ± 12% in data set [1] (setting [4]) and 47.5 ± 1.9% in data set [1] (setting [6]).

As to `COc1cccc([C@@]2(O)CCCC[C@@H]2CN(C)C)c1` [Tramadol], the chemical recovery in data set [1] (setting [3]) worked out at 31.3 ± 3.1%; in data set [1] (setting [4]), 31.2 ± 2.6%.

Compound `C[C@]12C=CC3=C4CCC(=O)C=C4CCC3C1CC[C@@H]2O` (some centres not stated) [Trenbolone] yielded a chemical recovery in data set [1] (setting [5]) of 47.4 ± 6.8%.

Regarding `CS(=O)(=O)OC[C@H](O)[C@@H](O)COS(C)(=O)=O` [Treosulfan], the chemical recovery in data set [1] (setting [3]) was found to be 7.98 ± 1.3%; in data set [1] (setting [4]), 18.7 ± 3.8%.

`CC(=O)OCC(COC(C)=O)OC(C)=O` [Triacetin] yielded a chemical recovery in data set [1] (setting [4]) of 30.3 ± 3.4%.

Consider `CC1(C)O[C@@H]2C[C@H]3[C@@H]4CCC5=CC(=O)C=C[C@]5(C)[C@@]4(F)[C@@H](O)C[C@]3(C)[C@]2(C(=O)CO)O1` [Triamcinolone acetonide], for which, in data set [1] (setting [5]), the chemical recovery was determined as 47.3 ± 4.9%.

Regarding `O=C(O)COc1nc(Cl)c(Cl)cc1Cl` [Triclopyr], the chemical recovery in data set [1] (setting [3]) came to 43 ± 3.5%; in data set [1] (setting [4]), 37 ± 3.9%; in data set [1] (setting [6]), 70.3 ± 2.9%.

With `CCCCOCCOCCOCCO` [Triethylene-Glycol-Monobutyl-Ether], the chemical recovery in data set [1] (setting [3]) stood at 165 ± 16%; in data set [1] (setting [4]), 109 ± 30%.

`COCCOCCOCCOC` [Triglyme]: the chemical recovery in data set [1] (setting [4]) was determined as 24.9 ± 4.5%.

Regarding `COc1cc(Cc2cnc(N)nc2N)cc(OC)c1OC` [Trimethoprim], the chemical recovery in data set [1] (setting [3]) came out at 39.2 ± 3.2%; in data set [1] (setting [4]), 45 ± 1.5%; in data set [1] (setting [5]), 48 ± 6.2%; in data set [1] (setting [6]), 72.5 ± 4.2%.

Turning to `COC(=O)CC(O)(CC(=O)OC)C(=O)OC` [Trimethylcitrate], the chemical recovery came out at 24.5 ± 2.7% in data set [1] (setting [3]), 30.7 ± 4.5% in data set [1] (setting [4]) and 12.5 ± 2.5% in data set [1] (setting [6]).

As for `CCCCCCCC[N+](C)(C)C` [Trimethyloctylammonium], the chemical recovery in data set [1] (setting [3]) worked out at 38.7 ± 3.8%; in data set [1] (setting [4]), 35 ± 2.5%; in data set [1] (setting [5]) it was 45.7 ± 6.1%; in data set [1] (setting [6]), 72.1 ± 3%.

Take `COP(=O)(OC)OC` [Trimethylphosphate]: the chemical recovery worked out at 3.11 ± 2.1% in data set [1] (setting [4]) and 0.912 ± 1.3% in data set [1] (setting [6]).

As to `CCCN(CCC)CCC` [Tripropylamine], the chemical recovery in data set [1] (setting [4]) came out at 7.35 ± 6.9%; in data set [1] (setting [6]), 2.09 ± 3.1%.

Take `O=c1n(CC(Br)CBr)c(=O)n(CC(Br)CBr)c(=O)n1CC(Br)CBr` (configuration not stated) [Tris(2,3-dibromopropyl)isocyanurate]: the chemical recovery in data set [1] (setting [4]) is 3.25 ± 5.6%.

As to `O=P(OCC(Br)CBr)(OCC(Br)CBr)OCC(Br)CBr` (configuration not stated) [Tris(2,3-dibromopropyl)phosphate], the chemical recovery in data set [1] (setting [3]) was 60.7 ± 8%; in data set [1] (setting [4]), 14.8 ± 3.3%.

Take `CCCCC(CC)COP(=O)(OCC(CC)CCCC)OCC(CC)CCCC` (configuration not stated) [Tris(2-ethylhexl)phosphate]: the chemical recovery was 6.76 ± 2.9% in data set [1] (setting [4]), 4.16 ± 1.6% in data set [1] (setting [5]) and 107 ± 4.1% in data set [1] (setting [6]).

As for `COc1nc(NC(=O)NS(=O)(=O)c2ccccc2C(F)(F)F)nc(C(F)(F)F)n1` [Tritosulfuron], the results for the chemical recovery in data set [1] (setting [3]), in data set [1] (setting [4]) and in data set [1] (setting [6]) were 72.3 ± 6.7%, 67.7 ± 4.7% and 76.1 ± 3.9%, respectively.

On to `CC(C)(c1ccccc1)c1cc(-n2nc3ccccc3n2)c(O)c(C(C)(C)c2ccccc2)c1` [UV-234], for which the chemical recovery in data set [1] (setting [4]) stood at 0.688 ± 0.28%.

`CC(C)(C)c1cc(-n2nc3ccccc3n2)c(O)c(C(C)(C)C)c1` [UV-320] registered a chemical recovery in data set [1] (setting [4]) of 3.34 ± 1%.

As for `CC(C)(C)c1cc(-n2nc3ccc(Cl)cc3n2)c(O)c(C(C)(C)C)c1` [UV-327], in data set [1] (setting [4]), the chemical recovery amounted to 1.82 ± 1.6%.

Compound `CCC(C)(C)c1cc(-n2nc3ccccc3n2)c(O)c(C(C)(C)CC)c1` [UV-328] gave a chemical recovery in data set [1] (setting [4]) of 1.74 ± 0.56%.

In data set [1] (setting [4]), `CC(C)(C)CC(C)(C)c1cc(-n2nc3ccccc3n2)c(O)c(C(C)(C)c2ccccc2)c1` [UV-928] came in with a chemical recovery of 0.72 ± 0.29%.

Take `CCCCCCCCOc1ccc(-c2nc(-c3ccc(C)cc3C)nc(-c3ccc(C)cc3C)n2)c(O)c1` [UV-1164]: the chemical recovery in data set [1] (setting [4]) was 0.287 ± 0.085%.

Take `CCCCCCOC(=O)c1ccccc1C(=O)c1ccc(N(CC)CC)cc1O` [Uvinul-A-Plus]: the chemical recovery in data set [1] (setting [4]) was found to be 26.5 ± 9.6%.

As to `CN(C)CC(c1ccc(O)cc1)C1(O)CCCCC1` (configuration not stated) [Venlafaxine-O-desmethyl], the chemical recovery was 31.3 ± 3.1% in data set [1] (setting [3]) and 31.2 ± 2.6% in data set [1] (setting [4]).

`O=S1OC[C@@H]2[C@H](CO1)[C@@]1(Cl)C(Cl)=C(Cl)[C@]2(Cl)C1(Cl)Cl` (stereo partly drawn) [alpha-Endosulfan]: the results for the chemical recovery in data set [1] (setting [4]) and in data set [1] (setting [6]) were 0.649 ± 0.17% and 13.6 ± 2.6%, respectively.

On to `Cl[C@H]1[C@H](Cl)[C@@H](Cl)[C@H](Cl)[C@@H](Cl)[C@H]1Cl` [delta-HCH], for which, in data set [1] (setting [5]), the chemical recovery was 40.6 ± 13%.

On to `COc1cc(-c2ccc(N)c(OC)c2)ccc1N` [o-Dianisidine], for which the results for the chemical recovery in data set [1] (setting [3]), in data set [1] (setting [4]) and in data set [1] (setting [6]) were 0.374 ± 0.16%, 15.5 ± 3% and 46.7 ± 7.3%, respectively.

On to `Cc1ccc(OS(=O)(=O)O)cc1` [p-Tolylsulfate], for which, in data set [1] (setting [4]), the chemical recovery was determined as 91 ± 13%.

In the case of `C/C(=C\c1ccccc1)c1ccccc1` [trans-a-Methylstilben], the chemical recovery in data set [1] (setting [4]) was 14.3 ± 7.5%.
